What was measured:
Coagulation factor X = Coagulation factor X (Homo sapiens, UniProt P00742); assay: Inhibition of human factor 10a using substrate S-2765 preincubated for 30 mins followed by substrate addition measured after 20 mins by micro plate reader method
Prothrombin = Prothrombin (Homo sapiens, UniProt P00734); assay: Inhibition of human thrombin using substrate S-2238 preincubated for 30 mins followed by substrate addition measured after 20 mins by micro plate reader method
Plasma [1] = assay: Anticoagulant activity in rabbit plasma assessed as increase in prothrombin time after 10 mins by coagulometer; assay type: functional, Oryctolagus cuniculus
Plasma [2] = assay: Anticoagulant activity in rabbit plasma assessed as increase in activated partial thromboplastin time after 10 mins by coagulometer; assay type: functional, Oryctolagus cuniculus
Rattus norvegicus [3] = assay: Antithrombotic activity in po dosed rat model of arteriovenous shunt assessed as reduction in thrombus weight administered 60 mins prior to shunt opening; assay type: functional, organism-based
Rattus norvegicus [4] = assay: Toxicity in po dosed rat assessed as increase in tail bleeding time administered 60 mins prior to tail transection measured over 30 mins; assay type: organism-based; settings: in vivo, 0.5 h
Rattus norvegicus [5] = assay: Antithrombotic activity in rat model of arteriovenous shunt assessed as reduction in thrombus weight at 10 mg/kg, po administered 60 mins prior to shunt opening; assay type: functional, organism-based

Chain of Coagulation factor X (P00742 41-179 limits assumed): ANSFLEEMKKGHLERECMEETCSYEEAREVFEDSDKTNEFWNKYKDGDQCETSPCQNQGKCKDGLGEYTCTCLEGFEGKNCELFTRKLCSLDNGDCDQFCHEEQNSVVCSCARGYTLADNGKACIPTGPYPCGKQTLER
Chain of Coagulation factor X (P00742 235-488 limits assumed): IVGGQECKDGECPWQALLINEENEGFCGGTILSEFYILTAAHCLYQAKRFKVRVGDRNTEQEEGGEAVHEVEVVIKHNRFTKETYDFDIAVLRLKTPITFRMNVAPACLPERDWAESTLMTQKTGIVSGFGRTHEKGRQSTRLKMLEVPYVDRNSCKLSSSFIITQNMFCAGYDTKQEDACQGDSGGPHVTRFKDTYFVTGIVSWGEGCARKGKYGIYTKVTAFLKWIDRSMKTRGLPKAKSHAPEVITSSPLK

SMILES	IC50 (Coagulation factor X)	also measured
COc1ccc(CC(=O)N2CN(c3ccc(N4CCCCC4=O)cc3)C(=O)c3cc(OC)ccc32)c(OC)c1	1270 nM	–
COc1ccc2c(c1)C(=O)N(c1ccc(N3CCCCC3=O)cc1)CN2C(=O)Cc1ccccc1Cl	1340 nM	–
COc1ccc2c(c1)C(=O)N(c1ccc(N3CCCCC3=O)cc1)CN2C(=O)c1cccc(Cl)c1	243000 nM	–
COc1cccc(C(=O)N2CN(c3ccc(N4CCCCC4=O)cc3)C(=O)c3cc(OC)ccc32)c1	354000 nM	–
COc1ccc(C(=O)N2CN(c3ccc(N4CCCCC4=O)cc3)C(=O)c3cc(OC)ccc32)cc1	113000 nM	–
COc1ccc2c(c1)C(=O)N(c1ccc(N3CCOCC3=O)cc1)CN2C(=O)CCc1ccc(Cl)cc1	2210 nM	–
COc1ccc2c(c1)C(=O)N(c1ccc(N3CCCCC3=O)cc1)CN2C(=O)c1ccc(Cl)s1	179000 nM	–
COc1ccc2c(c1)C(=O)N(c1ccc(N3CCCCC3=O)cc1)CN2C(=O)c1ccccc1	546000 nM	–
COc1ccc2c(c1)C(=O)N(c1ccc(N3CCOCC3=O)cc1)CN2C(=O)c1ccc(CCl)cc1	1410 nM	–
COc1ccc2c(c1)C(=O)N(c1ccc(N3CCCCC3=O)cc1)CN2C(=O)c1ccc(Cl)cc1	52000 nM	–
COc1ccc(NC(=O)c2ccc(C(=N)N(C)C)cc2)c(C(=O)Nc2ccc(Cl)cn2)c1 [BETRIXABAN]	–	2PT (Plasma [1]): 2.4 µM; 2aPTT (Plasma [2]): 1.1 µM; Activity (Rattus norvegicus [4]): Dose-dependent effect; Activity (Rattus norvegicus [5]): Dose-dependent effect
COc1ccc2c(c1)C(=O)N(c1ccc(N3CCCCC3=O)cc1)CN2C(=O)Cc1ccccc1	4060 nM	–

The next lines start with results.

IC50 (Coagulation factor X)	SMILES	also measured
498 nM	COc1ccc2c(c1)C(=O)N(c1ccc(N3CCOCC3=O)cc1)CN2C(=O)Cc1ccc(Cl)cc1Cl	–
165 nM	COc1ccc2c(c1)C(=O)N(c1ccc(-n3ccccc3=O)cc1)CN2C(=O)Cc1ccc(Cl)cc1	–
42 nM	COc1ccc2c(c1)C(=O)N(c1ccc(N3CCOCC3=O)cc1)CN2C(=O)Cc1ccc(Cl)cc1	IC50 (Prothrombin): 81000 nM; 2PT (Plasma [1]): 11.6 µM; 2aPTT (Plasma [2]): 16.1 µM
717 nM	COc1ccc(CC(=O)N2CN(c3ccc(N4CCOCC4=O)cc3)C(=O)c3cc(OC)ccc32)cc1	–
345 nM	COc1ccc2c(c1)C(=O)N(c1ccc(N3CCOCC3=O)cc1)CN2C(=O)Cc1ccc(Cl)c(Cl)c1	–
234 nM	COc1ccc2c(c1)C(=O)N(c1ccc(N3CCCCC3=O)cc1)CN2C(=O)Cc1ccc(NC(C)=O)cc1	–
127 nM	COc1ccc2c(c1)C(=O)N(c1ccc(N3CCCCC3=O)cc1)CN2C(=O)Cc1ccc(Cl)cc1	–
21 nM	COc1ccc2c(c1)C(=O)N(c1ccc(N3CCOCC3=O)cc1)CN2C(=O)Cc1ccc(Cl)s1	IC50 (Prothrombin): 67000 nM; 2PT (Plasma [1]): 1.2 µM; 2aPTT (Plasma [2]): 0.6 µM; Activity (Rattus norvegicus [3]): Dose-dependent effect; Activity (Rattus norvegicus [4]): Dose-dependent effect
157 nM	COc1ccc2c(c1)C(=O)N(c1ccc(N3CCOCC3=O)cc1)CN2C(=O)Cc1ccc(Cl)cn1	–
887 nM	COc1ccc(CC(=O)N2CN(c3ccc(N4CCCCC4=O)cc3)C(=O)c3cc(OC)ccc32)cc1	–
532 nM	COc1ccc2c(c1)C(=O)N(c1ccc(N3CCCCC3=O)cc1)CN2C(=O)Cc1cccc(Cl)c1	–
